Measurements as given in US20250127775A1, “METHOD OF INDUCING DENDRITIC AND SYNAPTIC GENESIS IN NEURODE[…] DISEASES” (priority 2018, published 2025).

How the values were obtained:
cortical rat neurons = assay: Dendrite and synaptic connections of rat cortical neurons after exposure to tryptamines (FIG. 2); type: cell-based; conditions: 24 hours of exposure, FIG. 2 left to right
Description: The effect is dramatic and fast even with very small doses of the compounds which is a desirable profile for a therapeutic molecule. Looking at FIG. 2 from left to right, it is apparent that LSD>DMT>DOI>Vehicle with regards to dendritic and synaptic generation. Potential therapeutics that can be used in the present invention are tryptamines such as tryptamines and phenethylamines selected from the group, N, N-dimethyltryptamine, 5-methoxy-N, N-dimethyltryptamine, Ketamine, noribogaine, psilocin 3,4-methylenedioxymethamphetamine, mescaline, psilocin, and psilocybin. The dose concentration will vary by molecule type but can range for 0.00001 to 250 milligrams to kilograms (mg/kg) of body weight with 0.01 to 50 mg/kg being preferred.

rat neurons = assay: SEM images of rat neurons after exposure to toxic amyloid peptide (FIG. 1); type: cell-based; conditions: exposure for 4 days to 250 micro molar toxic peptide
Description: At this resolution one can see copious dendritic structures, the round dark circles. The resolution is not high enough to visualize synaptic connections. The image labeled A is of rat neurons after exposure for 4days to 250 micro molar concentrations of toxic peptide. […] This model emulates what is seen in the human versions of AD disease.

| Compound | rank order with regards to dendritic and synaptic generation (cortical rat neurons) | degradation of the dendrites (and synaptic connections) (rat neurons) |
| --- | --- | --- |
| CN(C)CCc1c[nH]c2ccccc12 [DMT, N, N-dimethyltryptamine] | LSD>DMT>DOI>Vehicle | – |
| COc1cc(CC(C)N)c(OC)cc1I (stereo not drawn) [DOI] | LSD>DMT>DOI>Vehicle | – |
| A 42 amyloid proteins: toxic amyloid protein used to compromise rat neurons, dendrites and synaptic connections | – | significant degradation of the dendrites |
